This note sets out measurements from ChEMBL document CHEMBL1201862, “PubChem BioAssay data set” (2004).

Some test systems named below: IGROV-1; SK-MEL-5; EKVX; ACHN; SF-295; A549; MDA-N; LOX IMVI; SNB-75; OVCAR-8; SF-539; OVCAR-5; PC-3; OVCAR-3; HCC 2998; HCT-15; K562; COLO 205; NCI-H522; NCI-H23.
Experiment in all cases: NCI-60 cell line screen, 48 h

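Briefly, cells in 96-well plates were exposed to five compound concentrations for 48 h, and endpoints were estimated by linear interpolation. The concentration for 50% growth inhibition is given as GI50.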 Active and inactive are the calls of the source. Cut-off read from the data, not from the text of the source: active = GI50 up to about 1.1 µM and inactive = higher.

Turning to `CSc1ccc(C=C2N=C(c3ccccc3)N(c3cc(C(=O)c4ccccc4)ccc3N3C(=O)/C(=C/c4ccc(SC)cc4)N=C3c3ccccc3)C2=O)cc1`, the GI50 with IGROV-1 is 81.3 µM (inactive); in the assay with SK-MEL-5, 37.6 µM (inactive); with EKVX, > 100 µM (inactive); in the assay with ACHN, 52.4 µM (inactive); with SF-295, 44.1 µM (inactive); in the assay with A549 it was 43.5 µM (inactive). The GI50 in the assay on MDA-N is 93.1 µM (inactive); in the assay with LOX IMVI, 32.1 µM (inactive); in the assay with SNB-75, 16 µM (inactive); in the assay on OVCAR-8, 39.4 µM (inactive); in the assay on SF-539 it was 22.6 µM (inactive); in the assay on OVCAR-5, > 100 µM (inactive). For the same compound, the GI50 with PC-3 is 40 µM (inactive); in the assay on OVCAR-3, 22.2 µM (inactive); in the assay with HCC 2998, 46 µM (inactive); in the assay with HCT-15, 61.4 µM; with K562 it was 46 µM (inactive); with COLO 205, 56.9 µM (inactive).
With `Oc1ccc(Br)cc1/C=N/C1CCCCC1`, the GI50 was 24.1 µM (inactive) in the assay on IGROV-1; 19.2 µM (inactive) in the assay on SK-MEL-5; > 100 µM (inactive) with EKVX; 65.5 µM (inactive) in the assay on ACHN; 41.8 µM (inactive) with SF-295; > 100 µM (inactive) with A549. Also, the GI50 with MDA-N was 34.8 µM (inactive); in the assay on LOX IMVI, 13.3 µM (inactive); with NCI-H522, 55.3 µM (inactive); with OVCAR-8, 20.5 µM (inactive); with SF-539, 38.7 µM (inactive); with OVCAR-5 it was > 100 µM (inactive). The GI50 in the assay with NCI-H23 was 34.4 µM (inactive); with PC-3, 15.2 µM (inactive); in the assay on OVCAR-3, 13.1 µM (inactive); with HCC 2998 it was 25.5 µM (inactive); with HCT-15, 5.56 µM; with K562, 17.7 µM (inactive). In addition, the GI50 with COLO 205 was 65.5 µM (inactive).
Regarding `Cc1ccc(NC(=O)/C(Cc2cc(=O)oc3cc(O)ccc23)=N\NC(C)(C)C)cc1C`, the GI50 in the assay on SK-MEL-5, in the assay on ACHN, with SF-295, in the assay with A549, in the assay on MDA-N and in the assay with LOX IMVI was > 100 µM (inactive) in each case. For the same compound, the GI50 is > 100 µM (inactive) in the assay with OVCAR-8; > 100 µM (inactive) in the assay with SF-539; > 100 µM (inactive) in the assay with NCI-H23; > 100 µM (inactive) in the assay on PC-3; > 100 µM (inactive) in the assay on OVCAR-3; 29.4 µM (inactive) in the assay on HCC 2998. Also, the GI50 with HCT-15 was over 100 µM; with K562 it was > 100 µM (inactive); in the assay on COLO 205, > 100 µM (inactive).
For `O=C1CSC2=NCC3(NN12)c1ccccc1-c1ccccc13`, the GI50 in the assay with IGROV-1, in the assay on SK-MEL-5, in the assay on EKVX, with ACHN, in the assay on SF-295 and in the assay with A549 was > 10 µM (inactive) each time. Also, the GI50 with MDA-N, in the assay on LOX IMVI, with NCI-H522, in the assay with SNB-75, in the assay on OVCAR-8 and in the assay with SF-539 was > 10 µM (inactive) throughout. For the same compound, the GI50 was > 10 µM (inactive) in the assay on NCI-H23; > 10 µM (inactive) in the assay on PC-3; > 10 µM (inactive) with HCC 2998; over 10 µM with HCT-15; > 10 µM (inactive) in the assay on K562; > 10 µM (inactive) with COLO 205.
Regarding `COc1ccc(-c2nc(N)c(C#N)c3c2CCS(=O)(=O)c2ccc(C)cc2-3)cc1OC`, the GI50 was 31.6 µM (inactive) in the assay on IGROV-1; 20.7 µM (inactive) in the assay with SK-MEL-5; 48.4 µM (inactive) in the assay with ACHN; 26.4 µM (inactive) with A549; 11.7 µM (inactive) in the assay on MDA-N; 48.3 µM (inactive) in the assay with LOX IMVI. In addition, the GI50 is 8.87 µM (inactive) in the assay on NCI-H522; 23.7 µM (inactive) with SNB-75; 74.3 µM (inactive) with OVCAR-8; 19.6 µM (inactive) with OVCAR-5; 31.5 µM (inactive) in the assay on NCI-H23; 11.9 µM (inactive) in the assay on PC-3. Moreover, the GI50 in the assay on OVCAR-3 was 39.6 µM (inactive); in the assay with HCC 2998, 27.6 µM (inactive); in the assay with HCT-15 it was 16.1 µM; in the assay with K562 it was 10.7 µM (inactive); in the assay on COLO 205, 27.8 µM (inactive).
In the case of `[N-]=[N+]=CC(=O)C1CCN(c2ccccc2)C1=O` (configuration not stated), the GI50 with IGROV-1, in the assay with SK-MEL-5, in the assay on EKVX, with ACHN, in the assay on SF-295 and with A549 was > 10 µM (inactive) each time. The GI50 in the assay on MDA-N, in the assay with LOX IMVI, with OVCAR-8, in the assay on SF-539, in the assay with OVCAR-5 and with NCI-H23 was > 10 µM (inactive) throughout. Moreover, the GI50 was > 10 µM (inactive) with PC-3; > 10 µM (inactive) in the assay with OVCAR-3; > 10 µM (inactive) in the assay with HCC 2998; over 10 µM with HCT-15; > 10 µM (inactive) with K562; > 10 µM (inactive) with COLO 205.
With `CN(CC(=O)O)c1ncc2c(n1)-c1ccccc1CC2`, the GI50 with IGROV-1, in the assay on SK-MEL-5, in the assay on EKVX, with ACHN, in the assay on SF-295 and with A549 was > 100 µM (inactive) in each case. Moreover, the GI50 in the assay on MDA-N is > 100 µM (inactive); with LOX IMVI, > 100 µM (inactive); in the assay with NCI-H522, > 100 µM (inactive); with SNB-75, 74.8 µM (inactive); in the assay on OVCAR-8, > 100 µM (inactive); in the assay with SF-539 it was > 100 µM (inactive). For the same compound, the GI50 in the assay on OVCAR-5 was > 100 µM (inactive); in the assay on NCI-H23, > 100 µM (inactive); in the assay with PC-3, > 100 µM (inactive); in the assay with OVCAR-3, > 100 µM (inactive); in the assay with HCT-15 it was over 100 µM; with K562, > 100 µM (inactive). In addition, the GI50 in the assay with COLO 205 was > 100 µM (inactive).
Turning to `CN(C)CCCn1c2ccccc2c2cnccc21`, the GI50 was 64.7 µM (inactive) in the assay with IGROV-1; 19.7 µM (inactive) in the assay on SK-MEL-5; 36.1 µM (inactive) with EKVX; 33.8 µM (inactive) in the assay with ACHN; 46.5 µM (inactive) with SF-295; 33.6 µM (inactive) with A549. In addition, the GI50 in the assay on MDA-N is 25.2 µM (inactive); with LOX IMVI, 24.2 µM (inactive); in the assay with NCI-H522 it was 23.8 µM (inactive); in the assay on SNB-75, 66.1 µM (inactive); with OVCAR-8 it was 55.3 µM (inactive); with SF-539 it was 20.6 µM (inactive). The GI50 with OVCAR-5 is 38.4 µM (inactive); in the assay with NCI-H23, 39.5 µM (inactive); in the assay with PC-3, 32.3 µM (inactive); with OVCAR-3, 42.9 µM (inactive); in the assay with HCT-15, 43.7 µM; in the assay with K562, 26.2 µM (inactive). Also, the GI50 in the assay on COLO 205 is 14.6 µM (inactive).
In the case of `CC(C)[S+]1C2=C(CC(C)(C)CC2=O)[N-]c2ccccc21` (configuration not stated), the GI50 in the assay on IGROV-1, in the assay on SK-MEL-5, with EKVX, in the assay on ACHN, with SF-295 and with A549 was > 100 µM (inactive) throughout. The GI50 in the assay on MDA-N, in the assay with LOX IMVI, in the assay with NCI-H522, in the assay on SNB-75, in the assay with OVCAR-8 and in the assay on OVCAR-5 was > 100 µM (inactive) throughout. Further, the GI50 was > 100 µM (inactive) in the assay with NCI-H23; > 100 µM (inactive) in the assay on PC-3; > 100 µM (inactive) in the assay on OVCAR-3; > 100 µM (inactive) with HCC 2998; over 100 µM with HCT-15; > 100 µM (inactive) in the assay on K562. Besides, in the assay with COLO 205, the GI50 is > 100 µM (inactive).
For the compound `c1ccc2c(c1)C(=Nc1ccc(N=C3c4ccccc4-c4ccccc43)cc1)c1ccccc1-2`, the GI50 in the assay on IGROV-1, with SK-MEL-5, with EKVX, with SF-295, in the assay on A549 and in the assay on MDA-N was > 100 µM (inactive) throughout. Also, the GI50 in the assay on LOX IMVI, in the assay on NCI-H522, in the assay with OVCAR-8, in the assay with OVCAR-5, with NCI-H23 and with PC-3 was > 100 µM (inactive) each time. The GI50 was > 100 µM (inactive) in the assay with OVCAR-3; > 100 µM (inactive) in the assay on HCC 2998; over 100 µM with HCT-15; > 100 µM (inactive) with K562; > 100 µM (inactive) with COLO 205.
In the case of `CN(C)/C=C/c1c2c(nc3ccccc13)C(=O)c1ccccc1C2=O`, the GI50 is 1.19 µM (inactive) in the assay on IGROV-1; 0.175 µM (active) with SK-MEL-5; 1.89 µM (inactive) in the assay with EKVX; 0.598 µM (active) in the assay on ACHN; 0.875 µM (active) with SF-295; 2.33 µM (inactive) with A549. The GI50 with MDA-N is 0.483 µM (active); in the assay with LOX IMVI, 0.067 µM (active); with NCI-H522, 1.16 µM (inactive); in the assay on OVCAR-8 it was 1.63 µM (inactive); in the assay on SF-539 it was 1.92 µM (inactive); in the assay on OVCAR-5, 3.15 µM (inactive). For the same compound, the GI50 with NCI-H23 is 0.194 µM (active); in the assay on PC-3, 0.752 µM (active); in the assay on HCC 2998, 1.93 µM (inactive); in the assay with HCT-15 it was 0.766 µM; in the assay on K562 it was 0.151 µM (active); with COLO 205, 1.79 µM (inactive).
